Data from the supplement of paper PMC10307832.

Assays:
Assay in all cases: relative viability (nuclei count vs DMSO), 5 days (fraction); higher = more cells survive
[1] = compound: Cc1ccc(NC(=O)c2ccc(CN3CCN(C)CC3)cc2)cc1Nc1nccc(-c2cccnc2)n1 [Imatinib] + COc1cc2c(Oc3ccc(NC(=O)C4(C(=O)Nc5ccc(F)cc5)CC4)cc3F)ccnc2cc1OCCCN1CCOCC1 [Foretinib] (partner 0.25 µM)
How it was run: (§1)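 Five library-drug doses in √10 steps were combined with a fixed anchor-drug dose, or a single drug was given alone, by pin tool to lung cancer cell lines in 1536-well plates the day after seeding. Nuclei were stained and counted after 5 days. Relative viability is the nuclei count in treated wells over that in vehicle wells, taken as the median of duplicate plates.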

[2] = compound: Cc1ccc(NC(=O)c2ccc(CN3CCN(C)CC3)cc2)cc1Nc1nccc(-c2cccnc2)n1 [Imatinib] + C[C@]1(O)C[C@@H](c2nc(-c3ccc4ccc(-c5ccccc5)nc4c3)c3c(N)nccn32)C1 [Linsitinib] (partner 1 µM)
How it was run: as §1

[3] = compound: Cc1ccc(NC(=O)c2ccc(CN3CCN(C)CC3)cc2)cc1Nc1nccc(-c2cccnc2)n1 [Imatinib] + Cc1nc(NC(=O)N2CCC[C@H]2C(N)=O)sc1-c1ccnc(C(C)(C)C(F)(F)F)c1 [Alpelisib] (partner 2 µM)
How it was run: as §1

[4] = compound: Cc1ccc(NC(=O)c2ccc(CN3CCN(C)CC3)cc2)cc1Nc1nccc(-c2cccnc2)n1 [Imatinib] + COc1cccc2cc(-c3nc([C@H]4CC[C@H](C(=O)O)CC4)n4ncnc(N)c34)[nH]c12 [OSI-027] (partner 0.5 µM)
How it was run: as §1

Cell Line	relative viability ([1]; first compound 0.06325 µM)	relative viability ([1]; first compound 0.2 µM)	relative viability ([1]; first compound 0.6325 µM)	relative viability ([1]; first compound 2 µM)	relative viability ([2]; first compound 0.02 µM)	relative viability ([2]; first compound 0.2 µM)	relative viability ([2]; first compound 0.6325 µM)	relative viability ([2]; first compound 2 µM)	relative viability ([3]; first compound 0.02 µM)	relative viability ([3]; first compound 0.06325 µM)	relative viability ([3]; first compound 0.2 µM)	relative viability ([3]; first compound 0.6325 µM)	relative viability ([3]; first compound 2 µM)	relative viability ([4]; first compound 0.06325 µM)	relative viability ([4]; first compound 0.2 µM)	relative viability ([4]; first compound 0.6325 µM)	relative viability ([4]; first compound 2 µM)	relative viability ([1]; first compound 0.02 µM)	relative viability ([4]; first compound 0.02 µM)	relative viability ([2]; first compound 0.06325 µM)
EKVX	0.585	0.68	0.736	0.988	1.09	0.968	1.02	1.12	0.967	0.883	0.89	0.835	1.01	0.388	0.65	0.551	0.868			
NCI-H358	0.519	0.726	0.619	0.648	0.726	0.851	0.669	0.863	0.799		0.841	0.759	0.868	0.382	0.843	0.635	0.855	0.685	0.861	
HCC-78	0.577	0.534	0.44	0.56	0.444	0.563	0.524	0.576	0.319	0.381	0.367	0.347	0.348	0.387	0.389	0.366	0.314	0.654	0.332	0.528
LXF-289	0.914	1.14	0.848	0.95	1.03	1.08	0.892	0.935	1.16	1.06	1.15	0.967	1.02	0.556	0.814	0.754	0.724	1.01	0.791	1.05
NCI-H2085	0.941	1.02	1.01	0.972	0.93	1.11	0.95	0.825	1	0.937	1.05	1.01	0.876	0.432	0.717	0.724	0.588		0.823	0.823
NCI-H441	1.1	1.11	1.16	0.916	0.644	0.573	0.47	0.546	0.633	0.903	0.87	0.706	0.605	0.561	0.632	0.581	0.563	0.72	0.675	0.485
201T		1.06	1.04	1.12	1.03	1.03	1.03	0.957	1.03		1.07	1.02	0.993	0.798	0.762	0.761		1.21	0.865	
RERF-LC-KJ	0.757		0.794	0.834	0.879	1.03	0.872	0.94	0.841	0.723	0.8		0.8	0.418	0.544	0.492	0.551	0.909	0.598	1.08
NCI-H520	1.2	0.64	0.757	0.903	1.09	1.02	1.14	0.988	0.645	1.15	1.07	0.842	0.912	0.255	0.242	0.224	0.273	0.616	0.214	1.48
LK-2	0.908	1.65	0.83	1.32	0.614	0.739	0.222	0.689	1.33		1.23	1.18	1.19	0.207	0.151	0.217	0.212	1.18	0.178	0.427
NCI-H661	1.04	1.1	0.94	1.02	0.553	0.611	0.362	0.56	0.689	0.406	0.546	0.68	0.521	0.818	0.802	0.645	0.695	1	0.738	0.345
NCI-H1944	0.946	0.964	0.851	0.852	1.21	1.12	1.07	1.18	0.85		0.893	0.714	0.84	0.267	0.403	0.425	0.381	0.923	0.423	
LCLC-103H	0.744	0.565	0.679	0.869		1.08	1.03		0.909		0.9	0.851		0.375	0.548	0.415	0.433		0.453	
HOP-62		1.23	0.994	1.12	1.12		0.953	0.857	1.13		0.758		0.934		0.993	0.724	0.781	1.27	0.999	
HCC-15		1.05	0.987	1.09	0.82	0.926		0.867		0.853	0.883	0.814	0.885		0.623	0.683	0.666	1.14	0.716	0.917
NCI-H1793		0.919	0.682	0.715	1.09	1.06	0.96		0.721		0.801	0.73	0.674		0.263	0.249	0.204	0.827	0.298	
NCI-H1755	1.02	0.98	0.948		1.05		0.979	0.994	1.09	1.04	1.13	0.949	0.981	0.554	0.829	0.634	0.594	0.917	0.748	1.08
NCI-H322M	1.03	1.01	0.883	0.935	1.01		0.891	0.981	0.771	0.871	0.857	0.772	0.866	0.544	0.553	0.522	0.52	1.09	0.624	0.895

Cell Line	relative viability ([1]; first compound 0.06325 µM)	relative viability ([1]; first compound 0.2 µM)	relative viability ([1]; first compound 0.6325 µM)	relative viability ([1]; first compound 2 µM)	relative viability ([2]; first compound 0.02 µM)	relative viability ([2]; first compound 0.2 µM)	relative viability ([2]; first compound 0.6325 µM)	relative viability ([2]; first compound 2 µM)	relative viability ([3]; first compound 0.02 µM)	relative viability ([3]; first compound 0.06325 µM)	relative viability ([3]; first compound 0.2 µM)	relative viability ([3]; first compound 0.6325 µM)	relative viability ([3]; first compound 2 µM)	relative viability ([4]; first compound 0.06325 µM)	relative viability ([4]; first compound 0.2 µM)	relative viability ([4]; first compound 0.6325 µM)	relative viability ([4]; first compound 2 µM)	relative viability ([1]; first compound 0.02 µM)	relative viability ([4]; first compound 0.02 µM)	relative viability ([2]; first compound 0.06325 µM)
NCI-H650	0.78	1.03	1.17	0.977	1.27	0.95	1.05	0.861	1.19	1.15	1.08	1.2	0.983	0.496	0.51	0.544	0.459	1.07	0.557	0.86
NCI-H2009		1.27	1.25	1.23	1.19	1.21	1.24	1.24	1.18	1.24	1.26	1.21	1.13		0.672	0.623	0.582	1.29	0.666	1.32
NCI-H1437	1.26	1.33	1.22	1.24		1.42		1.04	1.13	1.16	1.02	0.981	0.94	0.945		0.911	0.891	1.37	0.998	1.18
NCI-H2023		0.873		0.776	0.778	0.796	0.682	0.719	0.633	0.728	0.653	0.577	0.586	0.303	0.426	0.314	0.334	0.87	0.524	0.871
LCLC-97TM1		1.03	0.927	0.905		0.204	0.179	0.184			0.236	0.231	0.266		0.577	0.542	0.444	0.934	0.562	
NCI-H2347		0.905	0.703	1.1	0.943	0.965		0.978	1.15	0.968	0.933	1.11	1.09	0.384	0.318	0.442	0.426		0.287	0.839
NCI-H1993	0.886	0.783	0.705	0.756		0.747	0.72	0.707		0.792	0.533	0.621	0.534	0.491	0.617	0.543	0.625	0.817	0.538	0.73
NCI-H1651	0.619	0.87	0.79	0.77	1.09	1.21	0.946	1.11	0.994	1.19	1.18	0.894	1.01	0.848	0.727	0.739	0.665	0.902		1.14
NCI-H727	0.898	0.891	0.712	0.834	0.301	0.277	0.299	0.347	0.496	0.585	0.529	0.659		0.476	0.519	0.773	0.551	0.969	0.455	0.249
SK-MES-1	0.915	1.03	0.786	0.963	1.07	1.23	1.06	1.19	0.887	0.891	1.03	0.954	0.988	0.407	0.642	0.521	0.597	0.957	0.717	1.19
BEN		0.564	0.701	0.602	0.908	0.921	0.837	0.969	1.1	0.785	0.93	1.05	1.03		0.262	0.287	0.302	0.774	0.285	0.785
NCI-H1975	0.986	0.879	0.954	0.871	0.977	1.07	0.843	0.958	0.61	0.721	0.775	0.621	0.553	0.772	0.827	0.579	0.549	1.09	0.843	0.965
NCI-H1395	1.15	1		1.02	0.978	1.04	1.02	0.975	1.03		1.08	1	0.999	0.443	0.705	0.581	0.606	0.952	0.63	
LC-2-ad	0.676	0.886	0.819	0.982	0.838	0.896	0.825	0.84	0.965	0.967	0.913	0.819	0.817	0.623	0.822	0.833	0.929	0.926	0.788	0.875
NCI-H647	1.27	1.57	1.25	1.06	1.43	1.25	1.13	1.18	1.25	1.4	1.6	1.13	1.11	0.693	0.704	0.626	0.562	1.51	0.621	1.44
COR-L23	1	1.01	0.984	1.01	1.14	1.18	0.895	1.04	0.794	1.02	0.969	0.806	0.902	0.831	0.853	0.824	0.64		0.869	1.01
NCI-H23	1.15	1.2	1.07	1.13	0.535	0.588	0.546	0.598	0.751		0.866	0.731	0.58	0.606	0.551	0.598	0.496	1.13	0.62	0.641
